In patent publication USRE48711E1, “Apoptosis signal-regulating kinase inhibitors” (Gilead Sciences, Inc., priority 2009, dated 2021):

These molecules were tested against ASK1 (Apoptosis Signal-Regulating Kinase 1) (Homo sapiens (Human), UniProt Q99683) (assay: ASK1 (Apoptosis Signal-Regulating Kinase 1) TR-FRET Kinase Assay (Biochemical IC50)). Details: TR-FRET, biotin-MBP substrate, 20 min pre-incubation, ATP added as 300 μM solution.
Chain of ASK1 (Apoptosis Signal-Regulating Kinase 1) (Q99683 649-946): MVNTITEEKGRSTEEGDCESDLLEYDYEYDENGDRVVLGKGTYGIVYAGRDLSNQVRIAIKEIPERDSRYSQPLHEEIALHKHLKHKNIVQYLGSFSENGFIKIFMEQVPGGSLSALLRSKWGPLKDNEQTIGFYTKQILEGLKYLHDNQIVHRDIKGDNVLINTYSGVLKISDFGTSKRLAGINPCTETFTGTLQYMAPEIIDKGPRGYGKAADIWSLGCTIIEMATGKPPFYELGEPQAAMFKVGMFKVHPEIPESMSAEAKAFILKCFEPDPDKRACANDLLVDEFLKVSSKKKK
An IC50 of 7 nM was found for COc1ccc(C(=O)Nc2cccc(-c3nncn3C3CC3)n2)cc1-n1cnc(C2CC2)c1 [Example 228, 3-(4-cyclopropyl-1H-imidazol-1-yl)-N-(6-(4-cyclopropyl-4H-1,2,4-triazol-3-yl)pyridin-2-yl)-4-methoxybenzamide] in this work.
An IC50 of 6 nM was found for O=C(Nc1cccc(-c2nncn2C2CC2)n1)c1cc(-c2ccc(C3CC3)nc2)ccn1 [Example 100, 6-cyclopropyl-N-(6-(4-cyclopropyl-4H-1,2,4-triazol-3-yl)pyridin-2-yl)-3,4′-bipyridine-2′-carboxamide] in this work.
An IC50 of 3410 nM was found for CC(O)c1nnc(-c2ccnc(C(=O)Nc3cccc(-c4nncn4C4CC4)c3)c2)o1 (stereo not drawn) [Example 252, N-(3-(4-cyclopropyl-4H-1,2,4-triazol-3-yl)phenyl)-4-(5-(1-hydroxyethyl)-1,3,4-oxadiazol-2-yl)picolinamide] in this work.
An IC50 of 93 nM was found for O=C(Nc1cccc(-c2nncn2C2CC2)c1)c1cc(N2CCCC(O)C2)ccn1 (stereo not drawn) [Example 174, N-(3-(4-cyclopropyl-4H-1,2,4-triazol-3-yl)phenyl)-4-(3-hydroxypiperidin-1-yl)picolinamide] in this work.
An IC50 of 569 nM was found for Cn1cnnc1-c1cccc(NC(=O)c2cc(N3CCNC(=O)C3)ccn2)c1 [Example 32, N-(3-(4-methyl-4H-1,2,4-triazol-3-yl)phenyl)-4-(3-oxopiperazin-1-yl)picolinamide] in this work.
An IC50 of 14 nM was found for O=C(Nc1cccc(-c2nncn2C2CC2)n1)c1cc(-n2cnc(C3CC3)n2)ccn1 [Example 201, 4-(3-cyclopropyl-1H-1,2,4-triazol-1-yl)-N-(6-(4-cyclopropyl-4H-1,2,4-triazol-3-yl)pyridin-2-yl)picolinamide] in this work.
An IC50 of 17 nM was found for COC[C@H](C)n1cnnc1-c1cccc(NC(=O)c2cc(-c3ccc(C4CC4)nc3)ccn2)c1 [Example 232, (S)-6-cyclopropyl-N-(3-(4-(1-methoxypropan-2-yl)-4H-1,2,4-triazol-3-yl)phenyl)-3,4′-bipyridine-2′-carboxamide] in this work.
An IC50 of 101 nM was found for CCC(C)n1cnnc1-c1cccc(NC(=O)c2cc(-c3ccc(C4CC4)nc3)ccn2)c1 (stereo not drawn) [Example 229, N-(3-(4-sec-butyl-4H-1,2,4-triazol-3-yl)phenyl)-6-cyclopropyl-3,4′-bipyridine-2′-carboxamide] in this work.
An IC50 of 26 nM was found for O=C(Nc1cccc(-c2nncn2C2CC2)c1)c1cc(-c2cncc3ccccc23)ccn1 [Example 89, N-(3-(4-cyclopropyl-4H-1,2,4-triazol-3-yl)phenyl)-4-(isoquinolin-4-yl)picolinamide] in this work.
An IC50 of 8 nM was found for CN1CCC(c2ccc(-c3ccnc(C(=O)Nc4cccc(-c5nncn5C5CC5)c4)c3)cn2)C1=O (stereo not drawn) [Example 110, N-(3-(4-cyclopropyl-4H-1,2,4-triazol-3-yl)phenyl)-6-(1-methyl-2-oxopyrrolidin-3-yl)-3,4′-bipyridine-2′-carboxamide] in this work.
An IC50 of 75 nM was found for O=C(Nc1cccc(-c2nncn2C2CCCC2)c1)c1cc(-c2cccnc2)ccn1 [Example 40, N-(3-(4-cyclopentyl-4H-1,2,4-triazol-3-yl)phenyl)-3,4′-bipyridine-2′-carboxamide] in this work.
An IC50 of 42 nM was found for Cn1cnnc1-c1cccc(NC(=O)c2cc(-c3cccnc3)ccn2)c1 [Example 9, N-(3-(4-methyl-4H-1,2,4-triazol-3-yl)phenyl)-3,4′-bipyridine-2′-carboxamide] in this work.
An IC50 of 15 nM was found for CC(C)(C)Cc1ccc(-c2ccnc(C(=O)Nc3cccc(-c4nncn4C4CC4)c3)c2)cn1 [Example 115, N-(3-(4-cyclopropyl-4H-1,2,4-triazol-3-yl)phenyl)-6-neopentyl-3,4′-bipyridine-2′-carboxamide] in this work.
An IC50 of 9 nM was found for O=C(Nc1cccc(-c2nncn2C2CC2)n1)c1cccc(-n2cnc3c2CCCC3)c1 [Example 212, N-(6-(4-cyclopropyl-4H-1,2,4-triazol-3-yl)pyridin-2-yl)-3-(4,5,6,7-tetrahydro-1H-benzo[d]imidazol-1-yl)benzamide] in this work.
An IC50 of 7 nM was found for O=C(Nc1cccc(-c2nncn2C2CC2)c1)c1cc(-c2ccc(CC(F)(F)F)nc2)ccn1 [Example 171, N-(3-(4-cyclopropyl-4H-1,2,4-triazol-3-yl)phenyl)-6-(2,2,2-trifluoroethyl)-3,4′-bipyridine-2′-carboxamide] in this work.
An IC50 of 12 nM was found for COc1ccc(-c2ccnc(C(=O)Nc3cccc(-c4nncn4C4CC4)c3)c2)cn1 [Example 21, N-(3-(4-cyclopropyl-4H-1,2,4-triazol-3-yl)phenyl)-6-methoxy-3,4′-bipyridine-2′-carboxamide] in this work.
An IC50 of 9 nM was found for O=C(Nc1cccc(-c2nncn2C2CC2)n1)c1cc(-n2cnc(C(F)(F)C(F)(F)F)c2)ccn1 [Example 199, N-(6-(4-cyclopropyl-4H-1,2,4-triazol-3-yl)pyridin-2-yl)-4-(4-(perfluoroethyl)-1H-imidazol-1-yl)picolinamide] in this work.
An IC50 of 1040 nM was found for O=C(Nc1cccc(-c2cncn2C2CC2)n1)c1cc(-c2cnc3ccccc3c2)ccn1 [Example 126, N-(6-(1-cyclopropyl-1H-imidazol-5-yl)pyridin-2-yl)-4-(quinolin-3-yl)picolinamide] in this work.
An IC50 of 5 nM was found for CC(C)c1cn(-c2cccc(C(=O)Nc3cccc(-c4nncn4C4CC4)n3)c2)cn1 [Example 193, N-(6-(4-cyclopropyl-4H-1,2,4-triazol-3-yl)pyridin-2-yl)-3-(4-isopropyl-1H-imidazol-1-yl)benzamide] in this work.
An IC50 of 6 nM was found for O=C(Nc1cccc(-c2nncn2C2CC2)c1)c1cc(-c2cnc3cc[nH]c3c2)ccn1 [Example 128, N-(3-(4-cyclopropyl-4H-1,2,4-triazol-3-yl)phenyl)-4-(1H-pyrrolo[3,2-b]pyridin-6-yl)picolinamide] in this work.
An IC50 of 1450 nM was found for O=C(Nc1cccc(-c2nncn2C2CC2)c1)c1cc(-c2cnc3ccccc3c2)cc(C(F)(F)F)n1 [Example 125, N-(3-(4-cyclopropyl-4H-1,2,4-triazol-3-yl)phenyl)-4-(quinolin-3-yl)-6-(trifluoromethyl)picolinamide] in this work.
An IC50 of 114 nM was found for NC(=O)CCn1cnnc1-c1cccc(NC(=O)c2cc(-c3cccnc3)ccn2)c1 [Example 16, N-(3-(4-(3-amino-3-oxopropyl)-4H-1,2,4-triazol-3-yl)phenyl)-3,4′-bipyridine-2′-carboxamide] in this work.
An IC50 of 16 nM was found for O=C(Nc1cccc(-c2nncn2C2CC2)c1)c1cc(-n2cnc3ncccc32)ccn1 [Example 81, N-(3-(4-cyclopropyl-4H-1,2,4-triazol-3-yl)phenyl)-4-(1H-imidazo[4,5-b]pyridin-1-yl)picolinamide] in this work.
An IC50 of 8 nM was found for Cc1ncn(-c2cccc(C(=O)Nc3cccc(-c4nncn4[C@@H](C)C(F)(F)F)n3)c2)c1C [Example 216, (S)-3-(4,5-dimethyl-1H-imidazol-1-yl)-N-(6-(4-(1,1,1-trifluoropropan-2-yl)-4H-1,2,4-triazol-3-yl)pyridin-2-yl)benzamide] in this work.
An IC50 of 21 nM was found for O=C(Nc1cccc(-c2nncn2C2CC2)c1)c1cc(-c2cncnc2)ccn1 [Example 24, N-(3-(4-cyclopropyl-4H-1,2,4-triazol-3-yl)phenyl)-4-(pyrimidin-5-yl)picolinamide] in this work.
An IC50 of 9 nM was found for Cc1ncn(-c2cccc(C(=O)Nc3cccc(-c4nncn4C4CC4)n3)c2)c1C [Example 211, N-(6-(4-cyclopropyl-4H-1,2,4-triazol-3-yl)pyridin-2-yl)-3-(4,5-dimethyl-1H-imidazol-1-yl)benzamide] in this work.
An IC50 of 71 nM was found for Cc1cc(-c2ccc(C3CC3)nc2)cc(C(=O)Nc2cccc(-c3nncn3C3CC3)c2)n1 [Example 249, 6-cyclopropyl-N-(3-(4-cyclopropyl-4H-1,2,4-triazol-3-yl)phenyl)-6′-methyl-3,4′-bipyridine-2′-carboxamide] in this work.
An IC50 of 139 nM was found for Cc1ccc2c(-c3ccc(C4CC4)nc3)cc(C(=O)Nc3cccc(-c4nncn4C4CC4)n3)nc2c1C [Example 236, N-(6-(4-cyclopropyl-4H-1,2,4-triazol-3-yl)pyridin-2-yl)-4-(6-cyclopropylpyridin-3-yl)-7,8-dimethylquinoline-2-carboxamide] in this work.
An IC50 of 18 nM was found for Cn1cncc1-c1ccnc(C(=O)Nc2cccc(-c3nncn3C3CC3)c2)c1 [Example 36, N-(3-(4-cyclopropyl-4H-1,2,4-triazol-3-yl)phenyl)-4-(1-methyl-1H-imidazol-5-yl)picolinamide] in this work.
An IC50 of 1130 nM was found for C[C@H](n1cnnc1-c1cccc(NC(=O)c2cc(-c3ccc(C4CC4)nc3)ccn2)c1)C(C)(C)C [Example 242, (S)-6-cyclopropyl-N-(3-(4-(3,3-dimethylbutan-2-yl)-4H-1,2,4-triazol-3-yl)phenyl)-3,4′-bipyridine-2′-carboxamide] in this work.
An IC50 of 48 nM was found for Cc1nccn1-c1ccnc(C(=O)Nc2cccc(-c3nncn3C3CC3)c2)c1 [Example 41, N-(3-(4-cyclopropyl-4H-1,2,4-triazol-3-yl)phenyl)-4-(2-methyl-1H-imidazol-1-yl)picolinamide] in this work.
An IC50 of 572 nM was found for CS(=O)(=O)c1ccccc1-c1ccnc(C(=O)Nc2cccc(-c3nncn3C3CC3)c2)c1 [Example 78, N-(3-(4-cyclopropyl-4H-1,2,4-triazol-3-yl)phenyl)-4-(2-(methylsulfonyl)phenyl)picolinamide] in this work.
An IC50 of 17 nM was found for NC(=O)c1cncc(-c2ccnc(C(=O)Nc3cccc(-c4nncn4C4CC4)c3)c2)c1 [Example 64, N2′-(3-(4-cyclopropyl-4H-1,2,4-triazol-3-yl)phenyl)-3,4′-bipyridine-2′,5-dicarboxamide] in this work.
An IC50 of 17 nM was found for O=C(Nc1cccc(-c2nncn2C2CC2)n1)c1cccc(-c2cnc3ccccc3c2)c1 [Example 150, N-(6-(4-cyclopropyl-4H-1,2,4-triazol-3-yl)pyridin-2-yl)-3-(quinolin-3-yl)benzamide] in this work.
An IC50 of 1420 nM was found for CCC(CC)n1cnnc1-c1cccc(NC(=O)c2cc(-c3ccc(C4CC4)nc3)ccn2)c1 [Example 231, 6-cyclopropyl-N-(3-(4-(pentan-3-yl)-4H-1,2,4-triazol-3-yl)phenyl)-3,4′-bipyridine-2′-carboxamide] in this work.
An IC50 of 11 nM was found for O=C(Nc1cccc(-c2nncn2C2CC2)c1)c1cc(-c2cnc3ccccn23)ccn1 [Example 69, N-(3-(4-cyclopropyl-4H-1,2,4-triazol-3-yl)phenyl)-4-(imidazo[1,2-a]pyridin-3-yl)picolinamide] in this work.
